Laboratory results reported in ChEMBL document CHEMBL5244273, “Tuberculosis: An Overview of the Immunogenic Response, Disease Progression, and Medicinal Chemistry Efforts in the Last Decade toward the Development of Potential Drugs for Extensively Drug-Resistant Tuberculosis Strains” (J Med Chem, 2021).
Converted amounts (≈) assume the structure as drawn.

What was measured:
Format in all cases: functional
[1] = system: Mycobacterium tuberculosis; test: Antimycobacterial activity against isoniazid, rifampicin, ethambutol, pyrazinamide, capreomycin, and ethionamide resistant Mycobacterium tuberculosis clinical isolate incubated for 7 days by resazurin microtitre assay; conditions: 168 h, time 7 day
[2] = system: Mycobacterium tuberculosis; test: Antimycobacterial activity against isoniazid, rifampicin, ethambutol, pyrazinamide, streptomycin, capreomycin, amikacin, kanamycin, ofloxacin, and ethionamide resistant Mycobacterium tuberculosis clinical isolate incubated for 7 days by resazurin microtitre assay; conditions: 168 h, time 7 day
[3] = system: Mycobacterium tuberculosis; test: Antimycobacterial activity against isoniazid resistant Mycobacterium tuberculosis clinical isolate incubated for 7 days by resazurin microtitre assay; conditions: 168 h, time 7 day
[4] = system: Mycobacterium tuberculosis; test: Antimycobacterial activity against extensively-resistant Mycobacterium tuberculosis H37Rv assessed as inhibition of bacterial growth by alamar blue assay
[5] = system: Mycobacterium tuberculosis; test: Antimycobacterial activity against multidrug-resistant Mycobacterium tuberculosis H37Rv assessed as inhibition of bacterial growth by alamar blue assay
[6] = system: Mycobacterium tuberculosis; test: Antitubercular activity against extensively drug resistant Mycobacterium tuberculosis H37Rv assessed as inhibition of bacterial growth by alamar blue assay
[7] = system: Mycobacterium tuberculosis; test: Antitubercular activity against multidrug resistant Mycobacterium tuberculosis H37Rv assessed as inhibition of bacterial growth by alamar blue assay
[8] = system: Mycobacterium tuberculosis; test: Antitubercular activity against extensively drug resistant Mycobacterium tuberculosis clinical isolate 11 by resazurin microtitre assay
[9] = system: Mycobacterium tuberculosis; test: Antitubercular activity against extensively drug resistant Mycobacterium tuberculosis clinical isolate 5 by resazurin microtitre assay
[10] = system: Mycobacterium tuberculosis; test: Antitubercular activity against multidrug resistant Mycobacterium tuberculosis clinical isolate 8 by resazurin microtitre assay
[11] = system: Mycobacterium tuberculosis; test: Antitubercular activity against multidrug resistant Mycobacterium tuberculosis clinical isolate 7 by resazurin microtitre assay
[12] = system: Mycobacterium tuberculosis; test: Antitubercular activity against multidrug resistant Mycobacterium tuberculosis clinical isolate 3 by resazurin microtitre assay
[13] = system: Mycobacterium tuberculosis; test: Antitubercular activity against extensively drug resistant Mycobacterium tuberculosis clinical isolate 1 by resazurin microtitre assay
[14] = system: Mycobacterium tuberculosis; test: Antitubercular activity against multidrug resistant Mycobacterium tuberculosis clinical isolate 9 by resazurin microtitre assay
[15] = system: Mycobacterium tuberculosis; test: Antitubercular activity against extensively drug resistant Mycobacterium tuberculosis clinical isolate 10 by resazurin microtitre assay
[16] = system: Mycobacterium tuberculosis; test: Antitubercular activity against extensively drug resistant Mycobacterium tuberculosis clinical isolate 8 by resazurin microtitre assay
[17] = system: Mycobacterium tuberculosis; test: Antitubercular activity against extensively drug resistant Mycobacterium tuberculosis clinical isolate 7 by resazurin microtitre assay
[18] = system: Mycobacterium tuberculosis; test: Antitubercular activity against extensively drug resistant Mycobacterium tuberculosis KMRC 0 0203-0 0197 by resazurin microtitre assay
[19] = system: Mycobacterium tuberculosis; test: Antitubercular activity against multidrug resistant Mycobacterium tuberculosis clinical isolate 1 by resazurin microtitre assay
[20] = system: Mycobacterium tuberculosis; test: Antitubercular activity against extensively drug resistant Mycobacterium tuberculosis clinical isolate 9 by resazurin microtitre assay
[21] = system: Mycobacterium tuberculosis; test: Antitubercular activity against multidrug resistant Mycobacterium tuberculosis clinical isolate 10 by resazurin microtitre assay
[22] = system: Mycobacterium tuberculosis; test: Antitubercular activity against multidrug resistant Mycobacterium tuberculosis clinical isolate 11 by resazurin microtitre assay
[23] = system: Mycobacterium tuberculosis; test: Antitubercular activity against extensively drug resistant Mycobacterium tuberculosis clinical isolate 6 by resazurin microtitre assay
[24] = system: Mycobacterium tuberculosis; test: Antitubercular activity against multidrug resistant Mycobacterium tuberculosis clinical isolate 4 by resazurin microtitre assay
[25] = system: Mycobacterium tuberculosis; test: Antitubercular activity against multidrug resistant Mycobacterium tuberculosis clinical isolate 5 by resazurin microtitre assay
[26] = system: Mycobacterium tuberculosis; test: Antitubercular activity against extensively drug resistant Mycobacterium tuberculosis clinical isolate 4 by resazurin microtitre assay
[27] = system: Mycobacterium tuberculosis; test: Antitubercular activity against multidrug resistant Mycobacterium tuberculosis clinical isolate 6 by resazurin microtitre assay
[28] = system: Mycobacterium tuberculosis; test: Antitubercular activity against extensively drug resistant Mycobacterium tuberculosis clinical isolate 3 by resazurin microtitre assay
[29] = system: Mycobacterium tuberculosis; test: Antitubercular activity against extensively drug resistant Mycobacterium tuberculosis clinical isolate 2 by resazurin microtitre assay
[30] = system: Mycobacterium tuberculosis; test: Antitubercular activity against multidrug resistant Mycobacterium tuberculosis clinical isolate 2 by resazurin microtitre assay
[31] = system: Mycobacterium tuberculosis; test: Antimycobacterial activity against isoniazid and rifampicin resistant Mycobacterium tuberculosis clinical isolate D
[32] = system: Mycobacterium tuberculosis; test: Antimycobacterial activity against isoniazid, streptomycin, rifampicin, ethambutol, ethionamide and ofloxacin resistant Mycobacterium tuberculosis clinical isolate H
[33] = system: Mycobacterium tuberculosis; test: Antimycobacterial activity against isoniazid, streptomycin and ethionamide resistant Mycobacterium tuberculosis clinical isolate F
[34] = system: Mycobacterium tuberculosis; test: Antimycobacterial activity against isoniazid and ethionamide resistant Mycobacterium tuberculosis clinical isolate E
[35] = system: Mycobacterium tuberculosis; test: Antimycobacterial activity against isoniazid, streptomycin, and rifampicin resistant Mycobacterium tuberculosis clinical isolate C
[36] = system: Mycobacterium tuberculosis; test: Antimycobacterial activity against isoniazid, streptomycin, ethambutol and ethionamide resistant Mycobacterium tuberculosis clinical isolate A
[37] = system: Mycobacterium tuberculosis; test: Antimycobacterial activity against isoniazid and ethionamide resistant Mycobacterium tuberculosis clinical isolate B
[38] = system: Mycobacterium tuberculosis; test: Antimycobacterial activity against isoniazid, streptomycin, rifampicin, ethambutol and ethionamide resistant Mycobacterium tuberculosis clinical isolate G
[39] = system: Mycobacterium tuberculosis; test: Antimycobacterial activity against Mycobacterium tuberculosis clinical isolate 152-0 harboring wild type gyrA and wild type gyrB
[40] = system: Mycobacterium tuberculosis; test: Antimycobacterial activity against Mycobacterium tuberculosis clinical isolate 775-0 harboring gyrA QRDR c270t (A90V) mutant and wild type gyrB
[41] = system: Mycobacterium tuberculosis; test: Antimycobacterial activity against Mycobacterium tuberculosis clinical isolate 581-17 harboring gyrA QRDR c270t (A90V) mutant and wild type gyrB
[42] = system: Mycobacterium tuberculosis; test: Antimycobacterial activity against Mycobacterium tuberculosis clinical isolate 124-0 harboring wild type gyrA and wild type gyrB
[43] = system: Mycobacterium tuberculosis; test: Antimycobacterial activity against Mycobacterium tuberculosis clinical isolate 383-0 harboring wild type gyrA and wild type gyrB
[44] = system: Mycobacterium tuberculosis; test: Antimycobacterial activity against Mycobacterium tuberculosis clinical isolate 410-11 harboring wild type and wild type gyrB
[45] = system: Mycobacterium tuberculosis; test: Antimycobacterial activity against Mycobacterium tuberculosis H37Rv harboring wild type gyrA and wild type gyrB
[46] = system: Mycobacterium tuberculosis; test: Antimycobacterial activity against Mycobacterium tuberculosis clinical isolate 199-00 harboring gyrA QRDR c270t (A90V) mutant and wild type gyrB
[47] = system: Mycobacterium tuberculosis; test: Antimycobacterial activity against Mycobacterium tuberculosis clinical isolate 742-0 harboring gyrA QRDR a282g (D94G) mutant and wild type gyrB
[48] = system: Mycobacterium tuberculosis; test: Antimycobacterial activity against Mycobacterium tuberculosis clinical isolate 427-18 harboring gyrA QRDR c270t (A90V) mutant and wild type gyrB
[49] = system: Mycobacterium tuberculosis; test: Antimycobacterial activity against Mycobacterium tuberculosis clinical isolate 666-0 harboring wild type gyrA and wild type gyrB

Compound	MIC [8]	MIC [9]	MIC [10]	MIC [11]	MIC [12]	MIC [13]	MIC [14]	MIC [15]	MIC [16]	MIC [17]	MIC [19]	MIC [20]	MIC [21]	MIC [22]	MIC [23]	MIC [24]	MIC [25]	MIC [26]	MIC [27]	MIC [28]	further results
CC(=O)N1/C(=C/c2ccc(Br)cc2)C(=O)c2ccccc21	–	–	–	–	–	–	–	–	–	–	–	–	–	–	–	–	–	–	–	–	MIC [1]: 9.15 µM (≈ 3.13 µg/mL); MIC [2]: 15.2 µM (≈ 5.2 µg/mL); MIC [3]: 15.2 µM (≈ 5.2 µg/mL)
Cc1cc(O)n2nc(Nc3ccc(F)c(F)c3)c(C(=O)Nc3ccc(F)cc3)c2n1	–	–	–	–	–	–	–	–	–	–	–	–	–	–	–	–	–	–	–	–	MIC [4]: 25 µg/mL (≈ 60.5 µM); MIC [5]: 3.12 µg/mL (≈ 7.55 µM)
O=C(Cc1ccccc1F)NNC(=O)c1ccncc1	–	–	–	–	–	–	–	–	–	–	–	–	–	–	–	–	–	–	–	–	MIC [6]: 250 µg/mL (≈ 915 µM); MIC [7]: 62.5 µg/mL (≈ 229 µM)
CO[C@H]1/C=C/O[C@@]2(C)Oc3c(C)c(O)c4c(O)c(c(/C=N/N5CCN(C)CC5)c(O)c4c3C2=O)NC(=O)/C(C)=C\C=C\[C@H](C)[C@H](O)[C@@H](C)[C@@H](O)[C@@H](C)[C@H](OC(C)=O)[C@@H]1C [RIFAMPIN]	> 200 µg/mL	> 200 µg/mL	> 200 µg/mL	> 200 µg/mL	> 200 µg/mL	> 200 µg/mL	> 200 µg/mL	6.25 µg/mL (≈ 7.59 µM)	> 200 µg/mL	> 200 µg/mL	> 200 µg/mL	> 200 µg/mL	3.13 µg/mL (≈ 3.8 µM)	3.13 µg/mL (≈ 3.8 µM)	100 µg/mL (≈ 122 µM)	> 200 µg/mL	3.13 µg/mL (≈ 3.8 µM)	6.25 µg/mL (≈ 7.59 µM)	> 200 µg/mL	> 200 µg/mL	MIC [1]: > 12.2 µM; MIC [2]: > 12.2 µM; MIC [18]: 100 µg/mL (≈ 122 µM); MIC [29]: > 200 µg/mL; MIC [3]: 0.377 µM (≈ 0.31 µg/mL); MIC [30]: > 200 µg/mL
CCN(CC)CCOc1c(C(=O)OC)c2c3c(oc2c2ccccc12)C(=O)c1ccccc1C3=O	0.19 µg/mL (≈ 0.403 µM)	0.19 µg/mL (≈ 0.403 µM)	0.39 µg/mL (≈ 0.827 µM)	0.02 µg/mL (≈ 0.0424 µM)	0.19 µg/mL (≈ 0.403 µM)	0.02 µg/mL (≈ 0.0424 µM)	0.02 µg/mL (≈ 0.0424 µM)	0.02 µg/mL (≈ 0.0424 µM)	0.19 µg/mL (≈ 0.403 µM)	0.19 µg/mL (≈ 0.403 µM)	0.19 µg/mL (≈ 0.403 µM)	0.19 µg/mL (≈ 0.403 µM)	0.02 µg/mL (≈ 0.0424 µM)	0.39 µg/mL (≈ 0.827 µM)	0.19 µg/mL (≈ 0.403 µM)	0.19 µg/mL (≈ 0.403 µM)	0.19 µg/mL (≈ 0.403 µM)	0.19 µg/mL (≈ 0.403 µM)	0.02 µg/mL (≈ 0.0424 µM)	0.19 µg/mL (≈ 0.403 µM)	MIC50 [18]: 0.19 µg/mL (≈ 0.403 µM); MIC [29]: 0.02 µg/mL (≈ 0.0424 µM); MIC [30]: 0.02 µg/mL (≈ 0.0424 µM)
Oc1ccc(-c2nnc(S)o2)cc1	–	–	–	–	–	–	–	–	–	–	–	–	–	–	–	–	–	–	–	–	MIC [31]: > 32 µg/mL; MIC [32]: 2 µg/mL (≈ 10.3 µM); MIC [33]: 8 µg/mL (≈ 41.2 µM); MIC [34]: 16 µg/mL (≈ 82.4 µM); MIC [35]: 16 µg/mL (≈ 82.4 µM); MIC [36]: > 32 µg/mL; MIC [37]: 8 µg/mL (≈ 41.2 µM); MIC [38]: > 32 µg/mL
NC(=O)c1cnccn1 [PYRAZINAMIDE]	> 200 µg/mL	> 200 µg/mL	> 200 µg/mL	> 200 µg/mL	> 200 µg/mL	> 200 µg/mL	> 200 µg/mL	> 200 µg/mL	> 200 µg/mL	> 200 µg/mL	> 200 µg/mL	> 200 µg/mL	> 200 µg/mL	> 200 µg/mL	> 200 µg/mL	> 200 µg/mL	> 200 µg/mL	> 200 µg/mL	> 200 µg/mL	> 200 µg/mL	MIC [18]: > 200 µg/mL; MIC [29]: > 200 µg/mL; MIC [30]: > 200 µg/mL
CC(C)(C)n1cc(C(=O)O)c(=O)c2cc(F)c(-c3cccnc3)cc21	–	–	–	–	–	–	–	–	–	–	–	–	–	–	–	–	–	–	–	–	MIC [39]: 4 µg/mL (≈ 11.8 µM); MIC [40]: 2 µg/mL (≈ 5.88 µM); MIC [41]: 2 µg/mL (≈ 5.88 µM); MIC [42]: 1 µg/mL (≈ 2.94 µM); MIC [43]: 2 µg/mL (≈ 5.88 µM); MIC [44]: 4 µg/mL (≈ 11.8 µM); MIC [45]: 0.5 µg/mL (≈ 1.47 µM); MIC [46]: 4 µg/mL (≈ 11.8 µM); MIC [47]: 32 µg/mL (≈ 94 µM); MIC [48]: 1 µg/mL (≈ 2.94 µM); MIC [49]: 4 µg/mL (≈ 11.8 µM)
CCc1cc(C(N)=S)ccn1 [ETHIONAMIDE]	–	–	–	–	–	–	–	–	–	–	–	–	–	–	–	–	–	–	–	–	MIC [32]: 114 µg/mL (≈ 686 µM); MIC [33]: > 80 µg/mL; MIC [34]: > 80 µg/mL; MIC [36]: 114 µg/mL (≈ 686 µM); MIC [37]: > 114 µg/mL; MIC [38]: > 114 µg/mL
Cc1cc(O)n2nc(Nc3ccc(Cl)c(Cl)c3)c(C(N)=O)c2n1	–	–	–	–	–	–	–	–	–	–	–	–	–	–	–	–	–	–	–	–	MIC [4]: 50 µg/mL (≈ 142 µM); MIC [5]: 12.5 µg/mL (≈ 35.5 µM)
